Here are results for 11 compounds from patent publication US20250129069A1, “TRIAZOLO WRN INHIBITORS” (Nimbus Wadjet, Inc., priority 2023, published 2025).

Like-named read-outs stand apart in the source and are kept apart here.

Assay [1] concerns p21 induction in HCT 116 cells. Nature of the assay: p21 induction in cells (In-Cell Western, p21/GAPDH ratio). The format is cell-based. The conditions noted are these: 24 h compound incubation, read-out: p21_EC50. As to the method: The colon carcinoma cell line HCT 116 was obtained from ATCC and cultured in growth medium consisting of Mccoy's 5A Medium (Gibco 16600108) supplemented with 10% FBS (Transgene FS201-02) and 100 units/mL penicillin-streptomycin (Gibco 15140122) and maintained at 37° C. under 5% CO2. On the day of seeding, 2,000 cells in 30 μL of culture media were plated per well to Poly-D-Lysine 384 Well Black Clear Plates (Biocoat 356663) and incubated overnight at 37° C. under 5% CO2. The following day, compounds were serially diluted in DMSO for a total of 11 test concentrations. The typical starting concentration of compounds was 10 μM with 2-fold dilutions. Next, 150 nL of diluted compound was added in duplicate to the assay plate, using an Echo 655 (Labcyte). The plate was centrifuged at 500 RPM for 1 min and then incubated at 37° C. under 5% CO2 for 24 h. After 24 h, medium was removed, and cells were fixed by adding 40 μL of 4% paraformaldehyde solution to each well and incubated for 20 min at room temperature. The plate was then washed 4 times with 100 μL per well of wash buffer (PBS with 0.1% Tween-20) using a microplate washer. Next, 30 μL of ice-cold methanol was added to each well and the plate was incubated at −20° C. for 10 min. The plate was washed 4 times with 100 μL per well of wash buffer by a microplate washer, then 30 μL per well of blocking buffer ((Intercept PBS blocking buffer (LI-COR 927-70001) with 0.05% Tween-20)) was added and the plate was incubated at room temperature with shaking for 2 h. Next, to each test well, 20 μL of primary antibody solution (p21 Wafl/CIP (12D1) RabbitmAb (Cell Signaling Technologies 2947) diluted 1:1000 and GAPDH (D4C6R) Mouse mAb (Cell Signaling Technologies 97166) diluted 1:2000 in blocking buffer) was added and the plate was placed at 4° C., overnight. The following day, the plate was washed 5 times with 100 μL per well of wash buffer using a microplate washer for 5 min. 20 μL per well of secondary antibody (IRDye 680CW Goat anti-Mouse IgG (H+L) (LI-COR 926-68070) diluted 1:2000 in Blocking Buffer and IRDye 800CW Goat anti-Rabbit IgG (H+L) (LI-COR 926-32211) diluted 1:2000 in Blocking Buffer) was then added and the plate was stored for 2 h in the dark at room temperature with shaking. The plate was then washed 4 times with 100 μL per well of wash buffer again using a microplate washer. Finally, the p21 signal and the GAPDH signal were quantified using a LI-COR Odyssey CLx Imager machine reading at 800 nm and 700 nm, respectively. Each plate contained DMSO control (low control) and an internal reference WRN inhibitor (high control) respectively. For quantitation, the 800 nm/700 nm ratio was calculated for each well to give fold p21 induction and then percent activation for each compound well was calculated as follows (100×(ratio cpd well-ratio low control)/(ratio high control−ratio low control). EC50 values for each compound was generated after non-linear regression curve fitting using commercially available software.

The target of assay [2] is human Werner helicase (WRN, amino acids 517-1235 with L1074F point mutation) (Homo sapiens (Human), UniProt Q14191, L1074F). The assay is described as follows: WRN (BV08) ADP-Glo assay. It counts as biochemical. The note with it: human WRN (aa 517-1235, L1074F), read-out: ADP-Glo_hWRN_IC50. The text has this:
Bovine skin gelatin (BSG), dimethyl sulfoxide (DMSO), Pluronic F-127 and tris(2-carboxyethyl)phosphine hydrochloride solution (TCEP) were purchased from Sigma-Aldrich (St. Louis, MO) at the highest level of purity possible. Bicine buffer solution was purchased from Alfa Aesar (Tewksbury, MA) and compound NSC-617145 was purchased from Tocris (Minneapolis, MN). DNA duplex was synthesized at BGI (Shenzhen, China) and was composed of strand 1 with the sequence 5′-[…]-3′ (SEQ ID NO.: 1) and strand 2 with the sequence 5′-[…]-3′ (SEQ ID NO.: 2). DNA strands were annealed by heating to 95° C. for 5 minutes followed by slow cooling to room temperature. Compounds in 100% DMSO (0.1 μl) were spotted into a 384-well white polystyrene Optiplate-384 (Perkin Elmer; Waltham, MA) assay plate using a LabCyte Echo 550 (Agilent; Santa Clara, CA). DMSO (0.1 μl) was added to columns 12, rows A-H and column 24, rows I-P for the maximum signal control. Compound NSC-617145 (0.1 μl) was added to columns 12, rows I-P and 24, rows A-H for the minimum signal control (100% inhibition). Compounds/DMSO were preincubated for 15 minutes at 25° C. with 5 μl 2×WRN (BV08), prepared as described below, in assay buffer containing 20 mM Bicine (pH=7.5), 1 mM MgCl2, 10 mM KCl, 0.1% Pluronic F-127, 0.005% BSG, 1 mM TCEP. The reaction was initiated by the addition of 5 μl 2× substrate mixture in assay buffer and incubated for 60 minutes at 25° C. The final concentrations of the assay components were 0.15 nM WRN, 5 μM ATP, and 0.1 nM DNA duplex. The final DMSO concentration was 1% and the reference compound concentration (NSC-617145) used for the minimal signal control was 20 μM. The reaction was stopped by the addition of the ADP-Glo Kit components (Promega; Madison, WI) as directed and the relative luminescence units (RLU) were read on an Envision 2104 (Perkin Elmer; Waltham, MA).
% inhibition calculation:
% INH=(RLU MAX−RLU sample)/(RLU MAX−RLU MIN))×100
Where RLU=relative luminescence units, sample=signal in sample well, and MIN and MAX are the respective minimum and maximum signal controls. Four-parameter IC50 fit equation:
Y=Bottom+(Top−Bottom)/(1+(IC50/X)^Hill Slope)
Where top and bottom are normally allowed to float but may be fixed at 100 or 0 respectively in a 3-parameter fit. Y is the % inhibition and X is the compound concentration.
Molecular Biology and virus production. The DNA encoding human Werner helicase (Uniprot Q14191, amino acids 517-1235 with L1074F point mutation) was generated with codon-optimization for E. coli expression and subcloned into the pFastBac vector with a TEV cleavable 8×His tag (WRN—BV08). The baculovirus from the expression plasmid WRN—BV08 was generated from transfection and amplification following the manufacturer's instructions.
Sf9 cells grown in SF900II media were infected with 1:200 WRN—BV08 P2 virus and incubated for protein expression for 72 h at 27° C. The WRN protein was purified using the following protocol. The cell pellets were thawed and resuspended in buffer A (50 mM Tris, pH 7.5, 500 mM NaCl, 1 mM TCEP, 10% Glycerol) supplemented with 0.5% CHAPS, 1 mM PMSF, […] Leupeptin, 1 μg/ml Pepstatin, and the Pierce Universal Nuclease and cocktail tablet. Cleared lysates were loaded onto a Ni Sepharose™ excel column and washed with buffer A and bound protein was eluted with buffer A supplemented with 300 mM imidazole. The eluted protein was dialyzed against buffer A and digested by His-tagged TEV (1:5 ratio) overnight at 4° C. ZnCl2 was added into the sample at final 15 μM before loading onto a second Ni Sepharose™ excel column. Untagged WRN protein was eluted from the column with buffer A supplemented with 20 mM imidazole, dialyzed overnight into buffer B (50 mM Tris, pH 7.5, 1 mM TCEP, 10% Glycerol) supplemented with 150 mM NaCl and loaded onto a Heparin column. Proteins were eluted with a step gradient of buffer B supplemented with 150 mM, 200 mM, 300 mM and 500 mM NaCl. […]
(In general: ADP-Glo turns the ADP formed in a reaction into a luminescent signal.)

human Werner helicase (WRN, amino acids 517-1235 with L1074F point mutation), sequence (Q14191 other isoform, or with tags, fused parts or gaps L1074F (already in the parent)): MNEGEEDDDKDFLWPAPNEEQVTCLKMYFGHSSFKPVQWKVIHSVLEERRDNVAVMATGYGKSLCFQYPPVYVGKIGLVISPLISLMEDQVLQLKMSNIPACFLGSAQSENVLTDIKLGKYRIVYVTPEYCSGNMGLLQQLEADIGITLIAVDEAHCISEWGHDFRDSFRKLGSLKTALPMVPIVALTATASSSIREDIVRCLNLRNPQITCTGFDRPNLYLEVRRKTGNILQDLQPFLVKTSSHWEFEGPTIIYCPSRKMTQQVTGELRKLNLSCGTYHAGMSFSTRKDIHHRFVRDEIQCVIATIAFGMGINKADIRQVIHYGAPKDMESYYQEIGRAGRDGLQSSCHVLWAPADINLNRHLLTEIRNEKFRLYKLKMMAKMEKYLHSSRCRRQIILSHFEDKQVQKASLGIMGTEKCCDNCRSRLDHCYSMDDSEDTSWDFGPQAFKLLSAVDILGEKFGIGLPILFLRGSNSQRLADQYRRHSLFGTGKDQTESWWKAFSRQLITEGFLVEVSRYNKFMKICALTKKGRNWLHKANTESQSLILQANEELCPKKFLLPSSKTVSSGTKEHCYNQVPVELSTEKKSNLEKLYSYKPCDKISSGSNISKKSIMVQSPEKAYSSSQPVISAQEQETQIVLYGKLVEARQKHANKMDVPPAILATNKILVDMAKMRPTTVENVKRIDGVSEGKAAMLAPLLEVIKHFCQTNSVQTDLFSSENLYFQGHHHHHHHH

`CCc1c([C@]23CCN(C(=O)c4ncnc(C)c4O)C[C@H]2C3)c(=O)c2nn(-c3ccnc(OC)c3)nc2n1CC(=O)NC12CC(C(C)C)(C1)C2` (relative stereo) [Compound I-41, rel-2-{5-ethyl-6-[(1R,6S)-3-(5-hydroxy-6-methylpyrimidine-4-carbonyl)-3-azabicyclo[4.1.0]heptan-6-yl]-2-(2-methoxypyridin-4-yl)-7-oxo-2H,4H,7H-[1,2,3]triazolo[4,5-b]pyridin-4-yl}-N-[3-(propan-2-yl)bicyclo[1.1.1]pentan-1-yl]acetamide]: the EC50 in assay [1] (Homo sapiens) was in the range of 2000 to 5000 nM. The IC50 in assay [2] is 5 to 50 nM.

Consider `CCc1c(N2CCN(C(=O)c3ncnc(C)c3O)[C@@H]3CCC[C@@H]32)c(=O)c2nn(-c3ccnc(OC)c3)nc2n1CC(=O)NC12CC(C(C)C)(C1)C2` (relative stereo) [Compound I-77, rel-2-{6-[(4aR,7aS)-4-(5-hydroxy-6-methylpyrimidine-4-carbonyl)-octahydro-1H-cyclopenta[b]pyrazin-1-yl]-5-ethyl-2-(2-methoxypyridin-4-yl)-7-oxo-2H,4H,7H-[1,2,3]triazolo[4,5-b]pyridin-4-yl}-N-[3-(propan-2-yl)bicyclo[1.1.1]pentan-1-yl]acetamide], for which the EC50 in assay [1] (Homo sapiens) is greater than 5000 nM. For the same compound, the IC50 in assay [2] is greater than 500 nM.

Turning to `CCc1c(N2CCN(C(=O)c3c(OC)ncc([C@H]4CCOC4)c3O)CC2)c(=O)c2nn(-c3ccnc(OC)c3)nc2n1CC(=O)NC12CC(C(C)C)(C1)C2` (single isomer, unassigned) [Compound I-43], the EC50 in assay [1] (Homo sapiens) was 500 to 2000 nM. Also, the IC50 in assay [2] lay in the range of 5 to 50 nM.

With `CCc1c(N2CCN(C(=O)c3c(OC)ncc([C@@H]4CCOC4)c3O)CC2)c(=O)c2nn(-c3ccnc(OC)c3)nc2n1CC(=O)NC12CC(C(C)C)(C1)C2` (single isomer, unassigned) [Compound I-44], the EC50 in assay [1] (Homo sapiens) was no more than 500 nM. Besides, in assay [2], the IC50 was 5 to 50 nM.

`CCc1c(C2=CCN(C(=O)c3ncnc(C)c3O)C[C@H]2C)c(=O)c2nn(-c3ccnc(OC)c3)nc2n1CC(=O)NC12CC(C(C)C)(C1)C2` (single isomer, unassigned) [Compound I-80]: the EC50 in assay [1] (Homo sapiens) was no more than 500 nM. In assay [2], the IC50 is 5 to 50 nM.

As for `CCc1c(C2=CCN(C(=O)c3ncnc(C)c3O)C[C@@H]2C)c(=O)c2nn(-c3ccnc(OC)c3)nc2n1CC(=O)NC12CC(C(C)C)(C1)C2` (single isomer, unassigned) [Compound I-81], in assay [1] (Homo sapiens), the EC50 is 500 to 2000 nM. For the same compound, in assay [2], the IC50 was in the range of 5 to 50 nM.

Take `CCc1c(N2CCN(C(=O)c3ncnc(C)c3O)[C@H]3CC[C@@H]32)c(=O)c2nn(C3=CCO[C@H](C)C3)nc2n1CC(=O)NC12CC(C3CC3)(C1)C2` (single isomer, unassigned) [Compound I-180]: the EC50 in assay [1] (Homo sapiens) was no more than 500 nM. Further, the IC50 in assay [2] lay in the range of 5 to 50 nM.

As to `CCc1c(N2CCN(C(=O)c3ncnc(C)c3O)[C@H]3CC[C@@H]32)c(=O)c2nn(C3=CCO[C@H](C)C3)nc2n1CC(=O)NC12CC(C3CC3)(C1)C2` (single isomer, unassigned) [Compound I-181], in assay [1], the EC50 was no more than 500 nM. Moreover, in assay [2], the IC50 was 5 to 50 nM.

For the compound `CCc1c(N2CCN(C(=O)c3ncnc(C)c3O)[C@H]3CC[C@@H]32)c(=O)c2nn([C@@H]3CC3(F)F)nc2n1CC(=O)Nc1ccc(C(F)(F)F)cc1Cl` (single isomer, unassigned) [Compound I-215], in assay [1] (Homo sapiens), the EC50 is no more than 500 nM. Besides, the IC50 in assay [2] was no more than 5 nM.

For `CCc1c(N2CCN(C(=O)c3ncnc(C)c3O)C3CCC[C@H]32)c(=O)c2nn(-c3ccnc(OC)c3)nc2n1CC(=O)NC12CC(C(C)C)(C1)C2` (stereo in doubt) [Compound I-76, rel-2-{6-[(4aR,7aS)-4-(5-hydroxy-6-methylpyrimidine-4-carbonyl)-octahydro-1H-cyclopenta[b]pyrazin-1-yl]-5-ethyl-2-(2-methoxypyridin-4-yl)-7-oxo-2H,4H,7H-[1,2,3]triazolo[4,5-b]pyridin-4-yl}-N-[3-(propan-2-yl)bicyclo[1.1.1]pentan-1-yl]acetamide], the EC50 in assay [1] (Homo sapiens) is 500 to 2000 nM. In addition, in assay [2], the IC50 lay within 5 to 50 nM.

As for `CCc1c(N2CCN(C(=O)c3ncnc(C)c3O)CC2)c(=O)c2nn(-c3ccnc(OC)c3)nc2n1CC(=O)Nc1ccc(C(F)(F)F)cc1Cl` [Compound I-1, N-(2-chloro-4-(trifluoromethyl)phenyl)-2-(5-ethyl-6-(4-(5-hydroxy-6-methylpyrimidine-4-carbonyl)piperazin-1-yl)-2-(2-methoxypyridin-4-yl)-7-oxo-2,7-dihydro-4H-[1,2,3]triazolo[4,5-b]pyridin-4-yl)acetamide], the EC50 in assay [1] was no more than 500 nM. The IC50 in assay [2] was in the range of 5 to 50 nM.
